Test results taken from patent US9796719B2, “Compounds and pharmaceutical compositions thereof for the treatment of inflammatory disorders” (GALAPAGOS NV, priority 2013, dated 2017).

target: hENPP2 (UniProtKB/SwissProt Sequence ref Q13822) (Homo sapiens (Human), UniProt Q13822); assay: LPC hENPP2 assay (choline release, LPC as substrate); type: biochemical
Protocol: The principle of the assay consists in quantifying the released choline with an enzymatic method using choline oxidase and peroxidase. Choline oxydation by choline oxydase releases betaine and peroxide. The latter is quantified in presence of HRP that converts the peroxide detection agent TOOS and 4-aminoantipyrine into quinoneimine dye. The appearance of quinoneimine dye is measured spectrophotometrically at 555 nm and is proportional to the amount of choline released by ENPP2. Inhibition of ENPP2 will result in a decrease of the signal.
The reaction is terminated and choline quantified by the addition of a 25 μL of a mixture containing 0.6 U/mL of choline oxidase, 0.6 U/mL of peroxydase, 1.8 mM TOOS, 1.2 mM amino-antipyrine, 20 mM EGTA (stop-developer solution) diluted in the buffer described above. […] is read on the Envision after an incubation of 30 min at room temperature (Excitation 555 nm, excitation light=70%).

| Compound | IC50 [nM] |
| --- | --- |
| CCc1nc2ccc(N3CCC(N(C)C)CC3)nn2c1N(C)c1nc(-c2ccc(F)cc2)cs1 [Cpd 80, N-(6-(4-(dimethylamino)piperidin-1-yl)-2-ethylimidazo[1,2-b]pyridazin-3-yl)-4-(4-fluorophenyl)-N-methylthiazol-2-amine] | > 1000 |
| CCc1nc2ccc(N3CCC(NC(=O)N4CCCC4)CC3)nn2c1N(C)c1nc(-c2ccc(F)cc2)cs1 [Compound 89, N-(1-(2-ethyl-3-((4-(4-fluorophenyl)thiazol-2-yl)(methyl)amino)imidazo[1,2-b]pyridazin-6-yl)piperidin-4-yl)pyrrolidine-1-carboxamide] | 500 to 1000 |
| CCc1nc2ccc(N3CC(NCC(=O)NC)C3)nn2c1N(C)c1nc(-c2ccc(F)cc2)cs1 [Cpd 157, 2-(1-(2-ethyl-3-((4-(4-fluorophenyl)thiazol-2-yl)(methyl)amino)imidazo[1,2-b]pyridazin-6-yl)azetidin-3-ylamino)-N-methylacetamide] | 500 to 1000 |
| CCc1nc2ccc(N3C[C@H]4C[C@H]3CN4C(=O)OC(C)(C)C)nn2c1N(C)c1nc(-c2ccc(F)cc2)cs1 [Cpd 74, tert-butyl-(1R,4S)-5-(2-ethyl-3-((4-(4-fluorophenyl)thiazol-2-yl)(methyl)amino)imidazo[1,2-b]pyridazin-6-yl)-2,5-diazabicyclo[2.2.1] heptane-2-carboxylate] | > 1000 |
| CCc1nc2ccc(N3CC(NS(C)(=O)=O)C3)nn2c1N(C)c1nc(-c2ccc(F)cc2)cs1 [Cpd 158, N-(1-(2-ethyl-3-((4-(4-fluorophenyl)thiazol-2-yl)(methyl)amino)imidazo[1,2-b]pyridazin-6-yl)azetidin-3-yl)methane-sulfonamide] | 500 to 1000 |
| CCc1nc2ccc(N3CCC(CN)CC3)nn2c1N(C)c1nc(-c2ccc(F)cc2)cs1 [Cpd 104, N-(6-(4-(aminomethyl)piperidin-1-yl)-2-ethylimidazo[1,2-b]pyridazin-3-yl)-4-(4-fluorophenyl)-N-methylthiazol-2-amine] | > 1000 |
| CCc1nc2ccc(N3CCC(O)CC3)nn2c1N(C)c1nc(-c2ccc(F)cc2)cs1 [Cpd 90, 1-(2-ethyl-3-((4-(4-fluorophenyl)thiazol-2-yl)(methyl)amino)imidazo[1,2-b]pyridazin-6-yl)piperidin-4-ol] | > 1000 |
| CCc1nc2ccc(N3CCC(NC(=O)C4CCNCC4)CC3)nn2c1N(C)c1nc(-c2ccc(F)cc2)cs1 [Cpd 88, N-(1-(2-ethyl-3-((4-(4-fluorophenyl)thiazol-2-yl)(methyl)amino)imidazo[1,2-b]pyridazin-6-yl)piperidin-4-yl)piperidine-4-carboxamide] | 500 to 1000 |
| CCc1nc2ccc(N3CCC(CO)C3)nn2c1N(C)c1nc(-c2ccc(F)cc2)c(CO)s1 (stereo not shown) [Compound 144, (1-(2-ethyl-3-((4-(4-fluorophenyl)-5-(hydroxymethyl)thiazol-2-yl)(methyl)amino)imidazo[, 2-b]pyridazin-6-yl)pyrrolidin-3-yl)methanol] | 500 to 1000 |
| CCc1nc2ccc(N3CCN(S(C)(=O)=O)[C@@H](CO)C3)nn2c1N(C)c1nc(-c2ccc(F)cc2)cs1 [Cpd 69, (R)-(4-(2-ethyl-3-((4-(4-fluorophenyl)thiazol-2-yl)(methyl)amino)imidazo[1,2-b]pyridazin-6-yl)-1-(methylsulfonyl)piperazin-2-yl)methanol] | > 1000 |
| CCc1nc2ccc(N3CCC(O)C3)nn2c1N(C)c1nc(-c2ccc(F)cc2)c(CO)s1 (stereo not shown) [Cpd 185, 1-(2-ethyl-3-((4-(4-fluorophenyl)-5-(hydroxymethyl)thiazol-2-yl)(methyl)amino)imidazo[1,2-b]pyridazin-6-yl)pyrrolidin-3-ol] | > 1000 |
| CCc1nc2ccc(N3CCN4C(=O)COC[C@@H]4C3)nn2c1N(C)c1nc(-c2ccc(F)cc2)cs1 [Compound 66, (S)-8-(2-ethyl-3-((4-(4-fluorophenyl)thiazol-2-yl)(methyl)amino)imidazo[1,2-b]pyridazin-6-yl)hexahydropyrazino[2,1-c][1,4]oxazin-4(1H)-one] | > 1000 |
| CCc1nc2ccc(N3CCCC(N4CCOCC4)C3)nn2c1N(C)c1nc(-c2ccc(F)cc2)cs1 (stereo not shown) [Cpd 110, N-(2-ethyl-6-(3-morpholino-piperidin-1-yl)imidazo[1,2-b]pyridazin-3-yl)-4-(4-fluorophenyl)-N-methylthiazol-2-amine] | > 1000 |
| CCc1nc2cnc(N3CCN(CC(=O)N4CC(O)C4)CC3)cn2c1N(C)c1cccc(-c2ccc(F)cc2C#N)n1 [Cpd 17, 2-(6-((2-ethyl-6-(4-(2-(3-hydroxyazetidin-1-yl)-2-oxoethyl)piperazin-1-yl)imidazo[1,2-a]pyrazin-3-yl)(methyl)amino)pyridin-2-yl)-5-fluorobenzonitrile] | > 1000 |
| CCc1nc2ccc(C3CCN(CC(=O)N4CC(O)C4)CC3)nn2c1N(C)c1nc(-c2ccc(F)cc2C#N)cs1 [Cpd 207, 2-(2-((2-ethyl-6-(1-(2-(3-hydroxyazetidin-1-yl)-2-oxoethyl)piperidin-4-yl)imidazo[1,2-b]pyridazin-3-yl)(methyl)amino)thiazol-4-yl)-5-fluorobenzonitrile] | 100 to 500 |

Continued, values first:

| IC50 [nM] | Compound |
| --- | --- |
| 100 to 500 | CCc1nc2ccc(C3CCN(CC(=O)N4CC(O)C4)CC3)nn2c1N(C)c1nc(-c2ccc(F)cc2C#N)ns1 [Cpd 220, 2-(5-((2-ethyl-6-(1-(2-(3-hydroxyazetidin-1-yl)-2-oxoethyl)piperidin-4-yl)imidazo[1,2-b]pyridazin-3-yl)(methyl)amino)-1,2,4-thiadiazol-3-yl)-5-fluorobenzonitrile] |
| 100 to 500 | CCc1nc2ccc(N3CCC(CO)C3)nn2c1N(C)c1nc(-c2ccc(F)cc2)c(C#N)s1 (stereo not shown) [Cpd 173, 2-((2-ethyl-6-(3-(hydroxymethyl)pyrrolidin-1-yl)imidazo[1,2-b]pyridazin-3-yl)(methyl)amino)-4-(4-fluorophenyl) thiazole-5-carbonitrile] |
| 100 to 500 | CCc1nc2ccc(N3CCN(S(C)(=O)=O)[C@H](CO)C3)nn2c1N(C)c1nc(-c2ccc(F)cc2)c(C#N)s1 [Cpd 161, (S)-2-((2-ethyl-6-(3-(hydroxymethyl)-4-(methylsulfonyl)piperazin-1-yl)imidazo[1,2-b]pyridazin-3-yl)(methyl)amino)-4-(4-fluorophenyl) thiazole-5-carbonitrile] |
| 0.01 to 100 | CCc1nc2ccc(N3CC(NCC(=O)N4CC(O)C4)C3)nn2c1N(C)c1nc(-c2ccc(F)cc2)c(C#N)s1 [Cpd 189, 2-((2-ethyl-6-(3-(2-(3-hydroxyazetidin-1-yl)-2-oxoethylamino)azetidin-1-yl)imidazo[1,2-b]pyridazin-3-yl)(methyl)amino)-4-(4-fluorophenyl) thiazole-5-carbonitrile] |
| 100 to 500 | CCc1nc2ccc(N3CC(NC(=O)OC(C)(C)C)C3)nn2c1N(C)c1nc(-c2ccc(F)cc2)c(C#N)s1 [Cpd 187, [1-(3-{[5-Cyano-4-(4-fluoro-phenyl)-thiazol-2-yl]-methyl-amino}-2-ethyl-imidazo[1,2-b]pyridazin-6-yl)-azetidin-3-yl]-carbamic acid tert-butyl ester] |
| 0.01 to 100 | CCc1nc2ccc(N3C[C@H](O)[C@@H](N4CCOCC4)C3)nn2c1N(C)c1nc(-c2ccc(F)cc2)c(C#N)s1 [Cpd 184] |
| 0.01 to 100 | CCc1nc2ccc(N3CCC(N4CCC(OC)CC4)C3)nn2c1N(C)c1nc(-c2ccc(F)cc2)c(C#N)s1 (stereo not shown) [Cpd 183, 2-((2-ethyl-6-(3-(4-methoxypiperidin-1-yl)pyrrolidin-1-yl)imidazo[1,2-b]pyridazin-3-yl)(methyl)amino)-4-(4-fluorophenyl) thiazole-5-carbonitrilc] |
| 100 to 500 | CCc1nc2ccc(N3CCN(S(C)(=O)=O)[C@H](CO)C3)nn2c1N(C)c1nc(-c2ccc(F)cc2)c(CO)s1 [Cpd 68, (S)-(4-(2-ethyl-3-((4-(4-fluorophenyl)-5-(hydroxymethyl)thiazol-2-yl)(methyl)amino)imidazo[1,2-b]pyridazin-6-yl)-1-(methylsulfonyl)piperazin-2-yl)methanol] |
| 100 to 500 | CCc1nc2ccc(N3CCN(CC(=O)N(C)C)CC3)nn2c1N(C)c1nc(-c2ccc(F)cc2C)cs1 [Cpd 73, 2-(4-(2-ethyl-3-((4-(4-fluoro-2-methylphenyl)thiazol-2-yl)(methyl)amino)imidazo[1,2-b]pyridazin-6-yl)piperazin-1-yl)-N,N-dimethylacetamide] |
| 0.01 to 100 | CCc1nc2ccc(N3CCC(N4CCC(O)CC4)C3)nn2c1N(C)c1nc(-c2ccc(F)cc2)c(C#N)s1 (stereo not shown) [Cpd 182, 2-((2-ethyl-6-(3-(4-hydroxypiperidin-1-yl)pyrrolidin-1-yl)imidazo[1,2-b]pyridazin-3-yl)(methyl)amino)-4-(4-fluorophenyl) thiazole-5-carbonitrile] |
| 100 to 500 | CCc1nc2ccc(N3CCC(O)(CNC(=O)C(C)C)C3)nn2c1N(C)c1nc(-c2ccc(F)cc2)c(C#N)s1 (stereo not shown) [Cpd 170, N-((1-(3-((5-cyano-4-(4-fluorophenyl)thiazol-2-yl)(methyl)amino)-2-ethylimidazo[1,2-b]pyridazin-6-yl)-3-hydroxypyrrolidin-3-yl)methyl) isobutyramide] |
| 100 to 500 | CCc1nc2ccc(N3CCC4(CCOCC4)C3)nn2c1N(C)c1nc(-c2ccc(F)cc2)c(CO)s1 [Cpd 186, (2-((2-ethyl-6-(8-oxa-2-azaspiro[4.5]decan-2-yl)[1,2-b]pyridazin-3-yl)(methyl)amino)-4-(4-fluorophenyl)thiazol-5-yl)methanol] |
| 100 to 500 | CCc1nc2ccc(N3CCN(CC(=O)N(C)C(C)C)CC3)nn2c1N(C)c1nc(-c2ccc(F)cc2)cs1 [Cpd 37, 2-(4-(2-ethyl-3-((4-(4-fluorophenyl)thiazol-2-yl)(methyl)amino)imidazo[1,2-b]pyridazin-6-yl)piperazin-1-yl)-N-isopropyl-N-methylacetamide] |
